We go through seven compounds from patent US5604215A, “Steroid sulphatase inhibitors” (Imperial College of Science, Technology and Medicine, priority 1991, dated 1997).

Where two headings read alike, the source gives them in different places.

Test [1] has as its target T1, steroid sulphatase in placental microsomes (Homo sapiens, UniProt P08842).
T1 construct: Sulphatase-positive human placenta from normal term pregnancies; from tissue; host or cells: human term placenta (Obstetric Ward, St. Mary's Hospital, London), 2000 g supernatant of the homogenate
T1 sequence (P08842 22-583): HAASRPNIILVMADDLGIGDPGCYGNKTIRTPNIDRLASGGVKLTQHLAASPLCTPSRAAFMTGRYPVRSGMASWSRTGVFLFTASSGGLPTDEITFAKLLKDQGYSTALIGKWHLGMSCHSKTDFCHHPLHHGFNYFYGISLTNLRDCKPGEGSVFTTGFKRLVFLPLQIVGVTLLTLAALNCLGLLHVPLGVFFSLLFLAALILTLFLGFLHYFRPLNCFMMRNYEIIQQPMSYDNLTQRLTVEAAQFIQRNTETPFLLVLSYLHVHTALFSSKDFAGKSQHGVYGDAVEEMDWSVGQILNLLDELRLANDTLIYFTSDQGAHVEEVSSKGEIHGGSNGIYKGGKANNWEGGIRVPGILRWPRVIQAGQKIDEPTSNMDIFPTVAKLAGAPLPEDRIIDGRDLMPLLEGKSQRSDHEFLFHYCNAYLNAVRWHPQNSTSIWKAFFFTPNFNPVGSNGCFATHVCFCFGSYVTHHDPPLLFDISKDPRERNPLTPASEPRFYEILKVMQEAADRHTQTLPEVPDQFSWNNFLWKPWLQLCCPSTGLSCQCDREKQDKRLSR
Description: Inhibition of Steroid Sulphatase Activity in Placental Microsomes ([6,7-^3 H]oestrone-3-sulphate substrate). It counts as biochemical. As to conditions: 20 μM oestrone-3-sulphate, 100 μg/ml protein, 20 minutes, 37° C., calculated IC50. The protocol: Sulphatase-positive human placenta from normal term pregnancies (Obstetric Ward, St. Mary's Hospital, London) were thoroughly minced with scissors and washed once with cold phosphate buffer (pH 7.4, 50 mM) then re-suspended in cold phosphate buffer (5 ml/g tissue). Homogenisation was accomplished with an Ultra-Turrax homogeniser, using three 10 second bursts separated by 2 minute cooling periods in ice. Nuclei and cell debris were removed by centrifuging (4° C.) at 2000 g for 30 minutes and portions (2 ml) of the supernatent were stored at -20° C. The protein concentration of the supernatents was determined by the method of Bradford (Anal. Biochem., 72, 248-254 (1976)).
Incubations (1 ml) were carried out using a protein concentration of 100 μg/ml, substrate concentration of 20 μM [6,7-^3 H]oestrone-3-sulphate (specific activity 60 Ci/mmol from New England Nuclear, Boston, Mass., U.S.A.) and an incubation time of 20 minutes at 37° C. The following oestrone-3-phosphonates were added to separate samples at a range of concentrations individually adjusted to span the 50% inhibition level:
After incubation each sample was cooled and the medium (1 ml) was pipetted into separate tubes containing [^14 C]oestrone (7×10^3 dpm) (specific activity […] from Amersham International Radiochemical Centre, Amersham, U.K.). The mixture was shaken thoroughly for 30 seconds with toluene (5 ml). […] A portion (2 ml) of the organic phase was removed, evaporated and the ^3 H and ^14 C content of the residue determined by scintillation spectrometry. The mass of oestrone-3-sulphate hydrolysed was calculated from the ^3 H counts obtained (corrected for the volumes of medium and organic phase used, and for recovery of [^14 C]oestrone added) and the specific activity of substrate.
Results for steroid sulphatase activity are expressed in Table III as calculated IC50 values (i.e. the concentration of oestrone-3-phosphonate which produced 50% inhibition in relation to control). […]

In test [2] the target is T2, steroid sulphatase (Steryl Sulphatase EC 3.1.6.2) in MCF-7 cells (Homo sapiens, UniProt P08842).
T2 construct: intact MCF-7 human breast cancer cells; endogenous in cells; host or cells: MCF-7 human breast cancer cells
T2 sequence (P08842 22-583): T1 sequence (P08842 22-583)
Description: Inhibition of Steroid Sulphatase Activity in MCF-7 cells (intact MCF-7 human breast cancer cells, [6,7-^3 H]oestrone-3-sulphate substrate). The settings on record: for inhibition at 10 µM: MCF7, Table II, inhibition over control incubations, read-out: % reduction over control (% inhibition), oestrone-3-sulphonates; for Steroid Sulphatase Activity in MCF-7 cells in the presence of oestrone-3-sulphonates: 10 μM, mean ± 1 S.D. n = 3, control 80.1 ± 3.3 (E1 -3-MeS: control 46.5 ± 2.3), *p ≤ 0.05 (E1 -3-BuS), **p ≤ 0.01 (EtS, CamS, MeS), E1 -3-MePhS: mean of 2 estimates, control 71.3. It counts as cell-based.

In test [3] the target is T2, steroid sulphatase (Steryl Sulphatase EC 3.1.6.2) in MCF-7 cells. Described as above. It counts as cell-based. Here is the method:
Steroid sulphatase is defined as: Steryl Sulphatase EC 3.1.6.2.
Steroid sulphatase activity was measured in vitro using intact MCF-7 human breast cancer cells. This hormone dependent cell line is widely used to study the control of human breast cancer cell growth. […] Up to 30 replicate 25 cm^2 tissue culture flasks were seeded with approximately 1×10^5 cells/flask using the above medium. Cells were grown to 80% confluency and medium was changed every third day.
Intact monolayers of MCF-7 cells in triplicate 25 cm^2 tissue culture flasks were washed with Earle's Balanced Salt Solution (EBSS from ICN Flow, High Wycombe, U.K.) and incubated for […] at 37° C. with 5 pmol (7×10^5 dpm) [6,7-^3 H]oestrone-3-sulphate (specific activity 60 Ci/mmol from New England Nuclear, Boston, Mass., U.S.A.) in serum-free MEM (2.5 ml) together with 10 μM of each of four oestrone-3-phosphonates:
After incubation each flask was cooled and the medium (1 ml) was pipetted into separate tubes containing [^14 C]oestrone (7×10^3 dpm) (specific activity […] from Amersham International Radiochemical Centre, Amersham, U.K.). The mixture was shaken thoroughly for 30 seconds with toluene (5 ml). […] A portion (2 ml) of the organic phase was removed, evaporated and the ^3 H and ^14 C content of the residue determined by scintillation spectrometry. The mass of oestrone-3-sulphate hydrolysed was calculated from the ^3 H counts obtained (corrected for the volumes of the medium and organic phase used, and for recovery of [^14 C]oestrone added) and the specific activity of the substrate. […] The number of cell nuclei per flask was determined using a Coulter Counter after treating the cell monolayers with Zaponin.
Results are expressed as the mean ±1 S.D. of the total product (oestrone+oestradiol) formed during the incubation period (20 hours) calculated for 10^6 cells and as a percentage reduction (inhibition) over incubations containing no oestrone-3-phosphonate for values showing statistical significance. […]

Setting [4] is: Table IV, read-out: Steroid Sulphatase Activity in placental microsomes in the presence of oestrone-3-sulphonates (IC50).

Consider `Cc1ccc(S(=O)(=O)Oc2ccc3c(c2)CC[C@@H]2[C@@H]3CC[C@]3(C)C(=O)CC[C@@H]23)cc1` [E1-3-MePhS, oestrone-3-p-toluenesulphonate], for which the IC50 (in general, the midpoint of a concentration-inhibition curve) in test [1] (setting [4]) was 130 µM. The inhibition (as a rule, the share of the control response that was lost under treatment) at 10 µM in test [2] turned out to be 90.5%.
On to `C[C@]12CC[C@@H]3c4ccc(OS(C)(=O)=O)cc4CC[C@H]3[C@@H]1CCC2=O` [E1-3-MeS, oestrone-3-methylsulphonate], for which, in test [1] (setting [4]), the concentration for half-maximal inhibition (IC50) is 205 µM. In test [2], the “Steroid Sulphatase Activity in MCF-7 cells in the presence of oestrone-3-sulphonates” value is on record as 21.3 ± 3.5 fmol/20 hr/10^6 cells and the inhibition at 10 µM is 54.2%.
As to `CCCCS(=O)(=O)Oc1ccc2c(c1)CC[C@@H]1[C@@H]2CC[C@]2(C)C(=O)CC[C@@H]12` [E1-3-BuS, oestrone-3-n-butylsulphonate], in test [2], the “Steroid Sulphatase Activity in MCF-7 cells in the presence of oestrone-3-sulphonates” value was 66.8 ± 3.3 fmol/20 hr/10^6 cells and the inhibition at 10 µM was 16.6%.
In the case of `CCS(=O)(=O)Oc1ccc2c(c1)CC[C@@H]1[C@@H]2CC[C@]2(C)C(=O)CC[C@@H]12` [E1-3-EtS, oestrone-3-ethylsulphonate], in test [2], the “Steroid Sulphatase Activity in MCF-7 cells in the presence of oestrone-3-sulphonates” value was 58.4 ± 1.9 fmol/20 hr/10^6 cells and the inhibition at 10 µM stood at 27.1%.
Turning to `C[C@]12CC[C@@H]3c4ccc(OP(=O)(O)c5ccccc5)cc4CC[C@H]3[C@@H]1CCC2=O` [E1-3-PhP, oestrone-3-phenylphosphonate], the “% reduction over control (% inhibition), oestrone-3-phosphonates” value in test [3] (10 μM, Table I, inhibition over incubations containing no oestrone-3-phosphonate) was found to be 70.3%. The “Steroid Sulphatase Activity in MCF-7 cells in the presence of oestrone-3-phosphonates” value in test [3] (10 μM, mean ± 1 S.D. n = 3, control 46.5 ± 2.3, ***p ≤ 0.001, E1 -3-HP: mean of 2 estimates, control 71.3) is 13.8 ± 0.7 fmol/20 hr/10^6 cells.
With `CC1(C)C2CCC1(CS(=O)(=O)Oc1ccc3c(c1)CC[C@@H]1[C@@H]3CC[C@]3(C)C(=O)CC[C@@H]13)C(=O)C2` (stereo partly drawn) [E1-3-CamS, oestrone-3-camphorylsulphonate], in test [2], the “Steroid Sulphatase Activity in MCF-7 cells in the presence of oestrone-3-sulphonates” value is listed as 62.7 ± 1.8 fmol/20 hr/10^6 cells and the inhibition at 10 µM was found to be 21.7%.
Regarding `C[C@]12CC[C@@H]3c4ccc(O[PH](=O)O)cc4CC[C@H]3[C@@H]1CCC2=O` [E1-3-HP, oestrone-3-hydrogen-phosphonate], the concentration for half-maximal inhibition (IC50) in test [1] (Table III, read-out: Steroid Sulphatase Activity in placental microsomes in the presence of oestrone-3-phosphonates (IC50)) was 5000 µM. Further, in test [3] (MCF7, Table I, inhibition over incubations containing no oestrone-3-phosphonate, read-out: % reduction over control (% inhibition), oestrone-3-phosphonates), the inhibition at 10 µM came to 80.1%.
